Reference: PubChem BioAssay (NCI)
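Test compounds were applied to cells in 96-well plates for 48 hours at 5 doses. GI50 marks 50% less growth. TGI: total growth inhibition.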

What was measured:
Assay in all cases: NCI anticancer screen, dose series, 48 h
OVCAR-8 ovarian = tested on: OVCAR-8 ovarian
TK-10 renal = tested on: TK-10 renal
SW-620 colon = tested on: SW-620 colon
A498 renal = tested on: A498 renal
SR leukemia = tested on: SR leukemia
HT29 colon = tested on: HT29 colon
NCI-H522 lung = tested on: NCI-H522 lung
HCT-15 colon = tested on: HCT-15 colon
HCT-116 colon = tested on: HCT-116 colon
M14 melanoma = tested on: M14 melanoma

| Structure (SMILES) | TGI (OVCAR-8 ovarian) | TGI (TK-10 renal) | TGI (SW-620 colon) | TGI (A498 renal) | TGI (SR leukemia) | TGI (HT29 colon) | TGI (NCI-H522 lung) | TGI (HCT-15 colon) | TGI (HCT-116 colon) | TGI (M14 melanoma) | GI50 (OVCAR-8 ovarian) | GI50 (TK-10 renal) | GI50 (SW-620 colon) | GI50 (A498 renal) | GI50 (SR leukemia) | GI50 (NCI-H522 lung) | GI50 (HCT-15 colon) | GI50 (HCT-116 colon) | GI50 (M14 melanoma) | GI50 (HT29 colon) |
| --- | --- | --- | --- | --- | --- | --- | --- | --- | --- | --- | --- | --- | --- | --- | --- | --- | --- | --- | --- | --- |
| O=C1CC2c3ccccc3CCC2c2ccccc21 (centres undefined) | 53.9 µM | > 100 µM | > 100 µM | 41.1 µM | > 100 µM | 30.6 µM | 46.7 µM | 50.1 µM | 42.1 µM | 33.4 µM |  |  |  |  |  |  |  |  |  |  |
| O=C1CC2CCCC23CC2(CCN13)OCCO2 (centres undefined) | > 100 µM | > 100 µM | > 100 µM | > 100 µM | > 100 µM | > 100 µM | > 100 µM |  | > 100 µM | > 100 µM |  |  |  |  |  |  |  |  |  |  |
| ClCc1cccc(Cn2cnc3nc(Cl)nc(Cl)c32)c1 | 21.2 µM | 10.8 µM | 1.67 µM | 2.9 µM | 2.6 µM |  | 3.79 µM | 2.13 µM | 0.731 µM | 2.28 µM | 9.24 µM | 5.95 µM | 0.419 µM | 1520 nM | 233 nM | 1840 nM | 955 nM | 285 nM | 0.854 µM |  |
| CCN(CC)c1ccc(N=Nc2ccc(-c3nc4ccc[n+](C)c4s3)cc2)cc1 | 65.3 µM | 34.5 µM | 26.1 µM | 26.6 µM | 53.7 µM | 18.5 µM | 28.5 µM | 32.1 µM | 20.5 µM | 37.6 µM |  |  |  |  |  |  |  |  |  |  |
| COc1cc(/C=C/c2cc(/C=C/c3ccc(O)c(OC)c3)n(C(=O)Nc3ccc(C)cc3C)n2)ccc1O | 2.36 µM | 2.16 µM |  | 1.93 µM |  | 3.59 µM |  |  |  |  | 0.562 µM | 0.529 µM |  | 538 nM | 44.5 nM |  |  |  |  | 903 nM |
| Cc1ncc(CCCN(C)C)cc1Nc1ncc2c(n1)-c1ccc(C(F)(F)F)cc1NC(=S)C2 | 23.1 µM | 19.8 µM | 12.3 µM | 0.0769 µM | 3.35 µM | 10.2 µM | 18.1 µM | 15 µM | 14.4 µM | 15.7 µM | < 0.0179 µM | 0.65 µM | < 0.01 µM | 21.9 nM | < 10 nM | < 10 nM | 38.9 nM | < 17.6 nM | < 0.016 µM | < 16.8 nM |
| CCNC(=O)Nc1cccc(NC(=O)NCC)n1 | > 100 µM | > 100 µM | > 100 µM | > 100 µM | > 100 µM | > 100 µM | > 100 µM |  | > 100 µM | > 100 µM |  |  |  |  |  |  |  |  |  |  |
| CCOc1cc(C(C)(C)C)ccc1C1=N[C@@](C)(c2ccc(Cl)cc2)[C@@](C)(c2ccc(Cl)cc2)N1C(=O)N1CCN(CCCS(C)(=O)=O)CC1 | > 100 µM | 46.9 µM | 29.3 µM | 9.46 µM | > 100 µM | 9.28 µM | 39.2 µM | 6.01 µM |  | > 100 µM | 12 µM | 10.3 µM | 11.2 µM | 1640 nM | 236 nM | 7110 nM | 2300 nM |  | 3.6 µM | 2960 nM |
| Cc1[nH]c2ccccc2c(=O)c1CC=C(Cl)Cl | > 100 µM | 99.3 µM | > 100 µM | 86.8 µM | > 100 µM | > 100 µM | > 100 µM | > 100 µM | > 100 µM | > 100 µM | 66.6 µM | 25.5 µM | > 100 µM | 14500 nM | 58100 nM | 24600 nM | > 100000 nM | 45300 nM | > 100 µM | > 100000 nM |
| O=C(Nc1c(Cl)cc([N+](=O)[O-])cc1Cl)C(=O)C(C1OC(=O)c2ccccc21)[N+](=O)[O-] (centres undefined) | > 100 µM | > 100 µM | > 100 µM | > 100 µM | > 100 µM | > 100 µM |  | > 100 µM | > 100 µM | > 100 µM |  |  |  |  |  |  |  |  |  |  |
| O=C(/C=C\c1ccc(NCc2ccc(C(=O)O)cc2)cc1)CCl | 19.9 µM |  | 11.6 µM | 28.3 µM | 10.9 µM | 37.8 µM | 3.24 µM | 12.7 µM | 10.3 µM | 35.3 µM | 6.98 µM |  | 3.14 µM | 15000 nM | 3330 nM | 1650 nM | 3350 nM | 2500 nM | 15 µM | 18900 nM |
| CC(C)C[C@H](NC(=O)/C=C/Cn1ccc2ccccc2c1=O)B(O)O | 55.5 µM | 10.4 µM | > 100 µM | 7.95 µM | 21.8 µM |  | 6.39 µM | 48.2 µM | 12.6 µM | 10.1 µM | 14.2 µM | 3.27 µM | 3.55 µM | 1700 nM | 887 nM | 2520 nM | 6550 nM | 2950 nM | 2.92 µM |  |
| COc1c(CCl)cc(-c2cc(=O)c3ccccc3s2)cc1CCl | > 100 µM | 99.7 µM |  | 90.7 µM | > 100 µM |  |  | > 100 µM | > 100 µM | > 100 µM |  |  |  |  |  |  |  |  |  |  |
| CC1=CC(C/C(C)=C/COc2ccc3ccc(=O)oc3c2)OC1=O (centres undefined) | > 100 µM | > 100 µM | > 100 µM |  | > 100 µM | > 100 µM | > 100 µM | > 100 µM | > 100 µM | > 100 µM |  |  |  |  |  |  |  |  |  |  |
| O=C1CSC(c2ccc(Cl)cc2Cl)N1c1ccc(F)cc1 (centres undefined) | 35.7 µM | 27.7 µM | 37.5 µM | 29.8 µM | 40.9 µM |  | 31.1 µM | 31 µM | 30.3 µM | 28.8 µM | 19 µM | 14.4 µM | 21.7 µM | 15900 nM | 19600 nM | 15100 nM | 17200 nM | 16700 nM | 15.2 µM |  |
| Cc1c(C(=O)/C=C/c2ccccc2)[n+](=O)c2ccccc2n1[O-] | 28.7 µM | 51.1 µM | 28.3 µM | 31.3 µM | 66 µM | 35.7 µM | 19.4 µM |  | 32.4 µM | 29.1 µM |  |  |  |  |  |  |  |  |  |  |
| COc1c(C(C)C)cc2c3c1OC(=O)[C@@]31CCCC(C)(C)C1CC2 (some centres undefined) | 62 µM | 99.8 µM | > 100 µM |  | > 100 µM | > 100 µM | 38.7 µM | > 100 µM | 29.1 µM | > 100 µM |  |  |  |  |  |  |  |  |  |  |
| COc1ccc(/C=C/C(=O)C(CC2CCC2)C(=O)/C=C/c2ccc(OC)c(OC)c2)cc1OC |  | 4.88 µM | 3.57 µM | 3.33 µM | > 100 µM | 4.34 µM |  | 3.9 µM | 2.42 µM |  |  | 2.59 µM | 1.55 µM | 1820 nM | 1040 nM |  | 1280 nM | 965 nM |  | 1780 nM |
